Literature values, collected in patent US20140370149A1, “METHODS FOR USING REBAUDIOSIDE C AS A FLAVOR ENHANCER” (International Flavors & Fragrances Inc., priority 2011, published 2014).

Details: sweetness relative to sucrose

For `C=C1C[C@@]23CC[C@H]4[C@@](C)(CCC[C@@]4(C)C(=O)O[C@@H]4O[C@H](CO)[C@@H](O)[C@H](O)[C@H]4O)[C@@H]2CC[C@]1(O[C@@H]1O[C@H](CO)[C@@H](O)[C@H](O)[C@H]1O[C@@H]1O[C@@H](C)[C@H](O)[C@@H](O)[C@H]1O)C3` [dulcoside A], the “times sweeter than sucrose” value is listed as 30 times.
